# In patent US12297476B2, “Metallic nanoparticles and methods of making and using the same” (Saint Joseph's University, priority 2020, dated 2025):
# System: Medicago sativa cells
# Details: 200 ppm (highest concentration), after two weeks of continuous growth in liquid medium
# Method: To determine the IC50 of KAuCl4, the filter sterilized stock solution of KAuCl4 (prepared in deionized water) was added at different concentrations (10-200 ppm) to 20 mL culture having a cell density of 20,000 cells/mL and incubated on the shaker for 2 weeks. Culture aliquots (1 mL) were collected at an interval of 48 h, spun at 2000 rpm for 10 min, stained with phosphate buffered Trypan Blue, and dead cells were counted using a haemocytometer. Percentage of cell death was determined from the total cell number.
structure (smiles),measurement,value
"[Cl][Au-]([Cl])([Cl])[Cl].[K+] [KAuCl4, potassium gold chloride]",cells eliminated from the culture (cell death),25%
